Reference: EP0200345A2, “Anti-allergic or anti-inflammatory substituted (hetero)-aralkylamino-ortho-phenols” (BEECHAM GROUP PLC, priority 1985, dated 1986)
Where a name gives a salt, the structure may show the parent alone.

What follows are molecules tested against T1, RBL-1 5-lipoxygenase (Rattus norvegicus, UniProt P12527) (assay: RBL-1 5-lipoxygenase screen). Conditions: compound concentration 0.05 µM; 10,000g supernatant from RBL-1 cells; formation of 5-HETE and 5,12-diHETE.
T1 construct: 5-Lipoxygenase enzyme was prepared as a 10,000g supernatant from RBL-1 cells; endogenous in cells; host or cells: RBL-1 cells (10,000g supernatant of the homogenate)
T1 sequence (P12527 1-673): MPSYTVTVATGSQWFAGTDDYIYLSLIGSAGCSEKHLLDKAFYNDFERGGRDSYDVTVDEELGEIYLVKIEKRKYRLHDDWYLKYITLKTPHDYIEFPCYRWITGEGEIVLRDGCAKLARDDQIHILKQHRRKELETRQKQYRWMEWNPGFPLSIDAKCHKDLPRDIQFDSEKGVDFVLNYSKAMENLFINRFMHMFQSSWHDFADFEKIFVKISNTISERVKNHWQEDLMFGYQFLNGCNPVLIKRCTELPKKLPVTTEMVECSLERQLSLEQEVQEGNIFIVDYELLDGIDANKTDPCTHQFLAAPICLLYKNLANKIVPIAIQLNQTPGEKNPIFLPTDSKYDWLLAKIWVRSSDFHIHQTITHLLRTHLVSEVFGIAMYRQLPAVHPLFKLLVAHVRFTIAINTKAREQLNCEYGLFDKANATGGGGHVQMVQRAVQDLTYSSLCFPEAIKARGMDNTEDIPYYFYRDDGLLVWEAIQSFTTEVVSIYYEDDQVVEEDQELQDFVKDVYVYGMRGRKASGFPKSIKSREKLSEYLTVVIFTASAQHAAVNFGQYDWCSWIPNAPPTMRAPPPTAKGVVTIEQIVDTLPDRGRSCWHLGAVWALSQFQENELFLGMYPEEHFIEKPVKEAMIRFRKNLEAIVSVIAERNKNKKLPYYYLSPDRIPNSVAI
Assay type: biochemical
Procedure: 1) RBL-1 5-LIPOXYGENASE SCREEN
5-Lipoxygenase enzyme was prepared as a 10,000g supernatant from RBL-1 cells by the method of Jakschik (Jakschik, B.A., F.F. Sun, L.M. Lee, and M.M. Steinhoff, 1980, Biochem. Biophys. Res. Comm. 95, 103). The 10,000g supernatant was diluted with homogenization buffer to the equivaleni of 1.5 -2.5 x 10^7 cells. ml.-' and made 2mM with respect to CaCl2. Aliquots of 0.5ml were then dispensed into tubes, and incubated at 29°C with 5ul ethanol or compound in ethanol at the desired concentration for 2min. Then [1-"C] arachidonic acid was added in buffer to give a final concentration of 6.3uM and 0.2uCi per incubation, and the reaction continued at 29°C for 2 min. The reaction was terminated by adding 1ml of acetone and cooling on ice, 0.5ml of ice-cold saline and 100ul of 2N formic acid were added, and the mixture was extracted with 2 ^x 2ml of chloroform. The extract was stored under N, at -20°C until analysis by chromatography. Activity was measured as the percentage of total radioactivity found in 5-HETE and 5,12-diHETE, and inhibition calculated as the decrease information of the sum of these two species in compound-treated incubates relative to control incubations.
Cc1ccc(O)c(NCc2cccs2)c1 [Example 13, 2-[(thien-2-yl)methyl]amino-4-methyl phenol] gave an inhibition at 0.05 µM of 49.7%.
COc1ccc(CNc2cc(C)ccc2O)cc1 [Example 7, 2-[(4-methoxyphenyl)methyl]amino-4-methylphenol] was tested, and the inhibition at 0.05 µM was 61.7%.
Molecule Cc1ccc(O)c(NCc2cccc(C(F)(F)F)c2)c1 [Example 10, 2-[(3-trifluoromethylphenyl)methyl]amino-4-methylphenol] has an inhibition at 0.05 µM of 89.5%.
Cc1ccc(O)c(NCc2ccc(Cl)cc2)c1 [Example 8, 2-[(4-chlorophenyl)methyl]amino-4-methylphenol] showed an inhibition at 0.05 µM of 91.4%.
Oc1ccc(Cl)cc1NCc1ccccc1 [Example 22, 2-phenylmethylamino-4-chlorophenol] gave an inhibition at 0.05 µM of 81%.
Cc1ccc(O)c(NCCc2ccccc2)c1 [Example 28, 2-phenylethylamino-4-methylphenol] was tested, and the inhibition at 0.05 µM was 86%.
For Cc1ccc(O)c(NCc2ccco2)c1 [Example 9, 2-[(2-furyl)methyl]amino-4-methylphenol], the inhibition at 0.05 µM was 31.4%.
CC(C)c1ccc(O)c(NCc2ccccc2)c1 [Example 20, 2-phenylmethylamino-4-iso-propylphenol] was tested, and the inhibition at 0.05 µM was 77%.
With Cc1ccc(O)c(NCc2ccc(C(C)C)cc2)c1 [Example 26] the inhibition at 0.05 µM was 80%.
In the case of Cc1ccc(O)c(NCc2ccc(Cl)c(Cl)c2)c1 [Example 12, 2-[(3,4 dichlorophenyl)methyl]amino-4-methyl phenol], the inhibition at 0.05 µM was 73.7%.
With Cc1ccc(O)c(NCc2cccc(Cl)c2)c1 [Example 15] the inhibition at 0.05 µM was 85%.
For Cc1ccc(O)c(NCc2cccc(F)c2)c1 [Example 16, 2-[(3-fluorophenyl)methyl]amino-4-methyl phenol], the inhibition at 0.05 µM was 76%.
CCc1ccc(O)c(NCc2ccccc2)c1 [Example 24, 2-phenylmethylamino-4-ethylphenol] showed an inhibition at 0.05 µM of 20%.
With Cc1ccc(O)c(NCc2ccc([N+](=O)[O-])cc2)c1 [Example 25] the inhibition at 0.05 µM was 80%.
CC(C)(C)c1ccc(O)c(NCc2ccccc2)c1 [Example 21, 2-phenylmethylamino-4-tert-butylphenol] showed an inhibition at 0.05 µM of 35%.
For Cc1ccc(O)c(NC(C)c2ccccc2)c1 (stereo not drawn) [Example 17, 2 -(α -Methylbenzyl)amino -4 -methylphenol], the inhibition at 0.05 µM was 34%.
Cc1ccc(CNc2cc(C)ccc2O)cc1 [Example 6, 2-[(4-Methylphenyl)methyl]amino-4-methylphenol] was tested, and the inhibition at 0.05 µM was 93.4%.
Cc1ccc(O)c(NCc2ccc(Br)cc2)c1 [Example 14, 2-[(4-bromophenyl)methyl]amino-4-methyl phenol] gave an inhibition at 0.05 µM of 64.2%.
Molecule Cc1ccc(O)c(NCc2ccc(C#N)cc2)c1 [Example 5, 2-[(4-Cyanophenyl)methyl]amino-4-methylphenol] has an inhibition at 0.05 µM of 42.8%.
Cc1ccc(O)c(NCc2ccc(F)cc2)c1 [Example 11, 2-[(4-fluorophenyl)methyl]amino-4-methyl phenol] showed an inhibition at 0.05 µM of 93.2%.
Molecule Cc1ccc(O)c(NCc2ccc(O)cc2)c1 [Example 27, 2-[(4-hydroxyphenyl)methyl]amino-4-methylphenol] has an inhibition at 0.05 µM of 12%.

Same assay, conditions: compound concentration 1 µM; 10,000g supernatant from RBL-1 cells; formation of 5-HETE and 5,12-diHETE
For O=C(c1ccccc1)c1cc(NCc2ccccc2)c(O)cc1O [Example 29, 4-Benzoyl-6-(Phenylmethylamino)resorcinol hydrochloride], the inhibition at 1 µM was 94%.
Molecule Cc1ccc(O)c(N(Cc2ccccc2)Cc2ccccc2)c1 [Example 30, 2-Dibenzylamino-4-methylphenol] has an inhibition at 1 µM of 91%.

Same assay, conditions: compound concentration 20 µM; 10,000g supernatant from RBL-1 cells; formation of 5-HETE and 5,12-diHETE
With Cc1ccc(O)c(NCc2ccccc2)c1 [Example 3, 2-Phenylmethyfamino-4-methylphenol] the inhibition at 20 µM was 95.4%.
In the case of Oc1ccc(Br)cc1NCc1ccccc1 [Example 23, 2-phenylmethylamino-4-bromophenol], the inhibition at 20 µM was 98%.
